Broadly, the Kd is the constant that tells how readily two partners part at equilibrium. High values mean weaker binding, low ones tighter binding.

Consider two molecules from paper PMC3894693 (Biochemical and biophysical research communications, 2013).

Assay [1] concerns the target T1, Pyruvate carboxylase (RePC) (Rhizobium etli, UniProt Q2K340). Nature of the assay: X-ray co-crystal structure. It counts as binding.
Assay [2] has as its target T1, Pyruvate carboxylase (RePC). Nature of the assay: ITC. It counts as binding.

Molecules are shown by their SMILES.

In assay [1], `O=C(O)C(=O)O` [oxalate] yielded a Kd of 0.13 mM.

In assay [2], `CC(=O)C(=O)O` [pyruvate] came in with a Kd of about 2 mM.
